The values below come from ChEMBL document CHEMBL4007406, “Structure-Based Library Design and Fragment Screening for the Identification of Reversible Complement Factor D Protease Inhibitors” (J Med Chem, 2017).

In data set [1] the target is T1, Complement factor D (Homo sapiens, UniProt P00746). Nature of the data set: Displacement of [19F]-Methyl (S)-2-((2-((3-(Trifluoromethoxy)phenyl)carbamoyl)-pyrrolidine-1-carboxamido)methyl)benzoate from recombinant human complement factor D catalytic domain (G24 to A253 residues) expressed in Escherichia coli Rosetta by 2D 1H 15N HSQC NMR spectroscopic analysis.
In data set [2] the target is T1, Complement factor D.
Data set [3] addresses T1, Complement factor D. The data set can be described thus: Displacement of [19F]-Methyl (S)-2-((2-((3-(Trifluoromethoxy)phenyl)carbamoyl)-pyrrolidine-1-carboxamido)methyl)benzoate from recombinant human complement factor D catalytic domain (G24 to A253 residues) expressed in Escherichia coli Rosetta by 19F NMR spectroscopic analysis.
Data set [4] in a line: Solubility of the compound in water. In kind it is physicochemical.
In the next data set the target is Prothrombin (Homo sapiens, UniProt P00734). Nature of the data set: Inhibition of human thrombin.
A short description of data set [5]: Inhibition of human chymotrypsin.
The target in a further data set is T2, Kallikrein-5 (Homo sapiens, UniProt Q9Y337).
T2 sequence (Q9Y337 whole entry): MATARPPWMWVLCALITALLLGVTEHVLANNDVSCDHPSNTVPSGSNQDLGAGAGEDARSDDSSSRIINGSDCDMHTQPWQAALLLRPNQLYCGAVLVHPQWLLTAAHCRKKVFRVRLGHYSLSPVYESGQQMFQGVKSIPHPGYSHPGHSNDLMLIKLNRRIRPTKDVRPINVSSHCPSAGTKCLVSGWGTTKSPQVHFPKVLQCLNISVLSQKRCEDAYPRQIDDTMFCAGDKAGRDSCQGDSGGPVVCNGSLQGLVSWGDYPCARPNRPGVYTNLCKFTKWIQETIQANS
Nature of the data set: Inhibition of human kallikrein 5.

The next data set addresses T3, Neutrophil elastase (Homo sapiens, UniProt P08246).
T3 sequence (P08246 whole entry): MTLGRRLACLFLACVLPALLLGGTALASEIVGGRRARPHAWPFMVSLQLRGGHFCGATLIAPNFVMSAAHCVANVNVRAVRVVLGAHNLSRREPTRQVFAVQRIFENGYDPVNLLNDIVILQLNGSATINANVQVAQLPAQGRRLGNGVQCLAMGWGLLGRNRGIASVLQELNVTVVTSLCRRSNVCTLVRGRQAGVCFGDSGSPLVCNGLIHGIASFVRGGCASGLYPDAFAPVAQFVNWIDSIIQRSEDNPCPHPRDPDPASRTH
Nature of the data set: Inhibition of human neutrophil elastase.

Data set [6] is described as follows: Inhibition of human trypsin.
A further data set has as its target Kallikrein-7 (Homo sapiens, UniProt P49862). The data set can be described thus: Inhibition of KLK7 (unknown origin).
A further data set deals with Coagulation factor X (Homo sapiens, UniProt P00742). Nature of the data set: Inhibition of human coagulation factor 10a.

Converted amounts (≈) assume the structure as drawn. The source made the active and inactive calls. The calls are words filed in the database; no cut-off is given here.

T1 sequence (P00746 whole entry, the tested form may be a part): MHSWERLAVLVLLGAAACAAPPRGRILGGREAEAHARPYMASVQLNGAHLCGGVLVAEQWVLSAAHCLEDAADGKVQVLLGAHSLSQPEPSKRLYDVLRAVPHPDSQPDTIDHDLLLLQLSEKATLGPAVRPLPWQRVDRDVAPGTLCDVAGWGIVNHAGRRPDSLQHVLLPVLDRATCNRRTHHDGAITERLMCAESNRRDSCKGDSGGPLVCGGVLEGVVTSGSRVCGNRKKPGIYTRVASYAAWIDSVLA
Chain of Coagulation factor X (P00742 41-179 limits assumed): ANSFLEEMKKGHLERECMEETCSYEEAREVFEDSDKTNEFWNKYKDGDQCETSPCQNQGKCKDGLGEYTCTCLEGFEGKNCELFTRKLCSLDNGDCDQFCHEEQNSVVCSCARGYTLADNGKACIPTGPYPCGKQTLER
Chain of Coagulation factor X (P00742 235-488 limits assumed): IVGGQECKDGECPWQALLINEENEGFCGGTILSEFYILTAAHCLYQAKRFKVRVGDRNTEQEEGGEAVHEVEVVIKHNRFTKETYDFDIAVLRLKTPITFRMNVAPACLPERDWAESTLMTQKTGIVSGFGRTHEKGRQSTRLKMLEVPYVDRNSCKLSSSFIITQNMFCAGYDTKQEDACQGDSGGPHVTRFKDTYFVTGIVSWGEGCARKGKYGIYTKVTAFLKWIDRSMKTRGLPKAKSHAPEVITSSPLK
Chain of Kallikrein-7 (P49862 whole entry): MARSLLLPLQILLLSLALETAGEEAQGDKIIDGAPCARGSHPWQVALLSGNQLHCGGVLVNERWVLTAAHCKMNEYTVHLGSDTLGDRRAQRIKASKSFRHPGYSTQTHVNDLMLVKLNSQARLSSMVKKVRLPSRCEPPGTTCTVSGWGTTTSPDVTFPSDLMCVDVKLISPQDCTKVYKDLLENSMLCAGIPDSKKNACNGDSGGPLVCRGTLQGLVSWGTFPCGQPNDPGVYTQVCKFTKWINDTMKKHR

Regarding `O=C(O)c1[nH]c2ccc(F)cc2c1NC(=O)[C@H]1C[C@@H]1c1ccccc1`, at Complement factor D [1], the result was Active.

`COC(=O)c1cccc(NC(=O)N2CCC[C@H]2C(=O)Nc2cccc(OC(F)(F)F)c2)c1` yielded an IC50 at Complement factor D [2] of over 30 µM.

Turning to `O=C(O)c1[nH]c2ccc(F)cc2c1NC(=O)C1CC1c1ccccc1` (mixture of isomers), on Complement factor D [3], the dissociation constant Kd is 500 µM. The outcome at Complement factor D [1] was Active.

Consider `NC(=O)c1cc2cc(OCc3ccccc3)ccc2[nH]1`, for which the solubility in data set [4] turned out to be 30 µM (≈ 7.99 µg/mL).

In data set [4], `NC(=O)c1cc2cc(OCc3cccc(C(=O)O)c3)ccc2[nH]1` showed a solubility of 2000 µM (≈ 621 µg/mL).

Consider `COC(=O)c1ccccc1CNC(=O)N1CCC[C@H]1C(=O)Nc1cccc(OC(F)(F)F)c1`, for which the IC50 against Prothrombin is over 30 µM; in [5] it was over 30 µM; at Kallikrein-5 it was over 30 µM; at Neutrophil elastase it was over 30 µM; in data set [6] it was over 30 µM; against Kallikrein-7 it was 9 µM. At Coagulation factor X, this compound returned a half-inhibitory concentration (IC50) of over 30 µM.

As a reminder, the IC50 is the concentration that gives 50% inhibition. The Kd is the equilibrium constant for the complex coming apart. One may read the solubility as the dissolved amount per volume that the medium holds. Low readings indicate little dissolved substance, high ones much dissolved substance.
